Experimental data from patent publication US8557853B2, “Aryl fluoroethyl ureas acting as alpha 2 adrenergic agents” (Allergan, Inc., priority 2007, dated 2013).
pEC50: −log10 of the molar value.

Assays:
Type in all cases: cell-based
alpha2A receptor = molecular target: T1, alpha2A receptor (Homo sapiens, UniProt P08913); experiment: RSAT (Receptor Selection and Amplification Technology) assay, alpha 2A
T1 construct: expressed in transfected cells; host or cells: NIH-3T3 cells
T1 sequence (P08913 1-465): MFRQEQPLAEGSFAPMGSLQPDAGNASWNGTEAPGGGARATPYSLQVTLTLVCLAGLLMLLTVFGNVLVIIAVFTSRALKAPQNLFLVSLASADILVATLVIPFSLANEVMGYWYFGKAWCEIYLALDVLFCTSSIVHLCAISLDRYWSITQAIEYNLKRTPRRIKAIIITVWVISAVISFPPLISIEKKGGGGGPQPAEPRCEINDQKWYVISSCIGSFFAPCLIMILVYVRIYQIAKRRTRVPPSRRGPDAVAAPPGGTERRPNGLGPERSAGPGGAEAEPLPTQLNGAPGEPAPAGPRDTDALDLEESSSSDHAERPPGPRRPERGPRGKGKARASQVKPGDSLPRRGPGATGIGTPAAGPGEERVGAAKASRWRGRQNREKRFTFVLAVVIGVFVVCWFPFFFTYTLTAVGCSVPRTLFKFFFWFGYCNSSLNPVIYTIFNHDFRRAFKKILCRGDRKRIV
Excerpt: (§1) The aryl fluoroethyl ureas of the invention are agonists of alpha2 adrenergic receptors. […] Al, 1995, Pharmacol. Toxicol. 76, pp. 308-311 (incorporated herein by reference) and is also described below. Another reference pertinent to this assay is Conklin et al. (1993) Nature 363:274-6, Receptor Selection and Amplification Technology (RSAT) assay, also incorporated herein by reference.
(§2) The RSAT assay measures a receptor-mediated loss of contact inhibition that results in selective proliferation of receptor-containing cells in a mixed population of confluent cells. The increase in cell number is assessed with an appropriate transfected marker gene such as ∃-galactosidase, the activity of which can be easily measured in a 96-well format. Receptors that activate the G protein, Gq, elicit this response. Alpha 2 receptors, which normally couple to Gi, activate the RSAT response when coexpressed with a hybrid Gq protein that has a Gi receptor recognition domain, called Gq/i5.
(§3) NIH-3T3 cells are plated at a density of 2×10^6 cells in 15 cm dishes and maintained in Dulbecco's modified Eagle's medium supplemented with 10% calf serum. One day later, cells are cotransfected by calcium phosphate precipitation with mammalian expression plasmids encoding p-SV-β-galactosidase (5-10 μg), receptor (1-2 μg) and G protein (1-2 μg). 40 μg salmon sperm DNA may also be included in the transfection mixture. Fresh media is added on the following day and 1-2 days later, cells are harvested and frozen in 50 assay aliquots. Cells are thawed and 100 μl added to 100 μl aliquots of various concentrations of drugs in triplicate in 96-well dishes. Incubations continue 72-96 hr at 37° C. After washing with phosphate-buffered saline, ∃-galactosidase enzyme activity is determined by adding 200 μl of the chromogenic substrate (consisting of 3.5 mM o-nitrophenyl-β-D-galactopyranoside and 0.5% nonidet P-40 in phosphate buffered saline), incubating overnight at 30° C. and measuring optical density at 420 nm. The absorbance is a measure of enzyme activity, which depends on cell number and reflects a receptor-mediated cell proliferation. The efficacy or intrinsic activity is calculated as a ratio of the maximal effect of the drug to the maximal effect of a standard full agonist for each receptor subtype. Brimonidine, also called UK14304, the chemical structure of which is shown below, is used as the standard agonist for the alpha2A, alpha2B and alpha2C receptors.
(§4) The results of the RSAT assay with several exemplary compounds of the invention are disclosed in Table 1 below together with the chemical structures of these compounds. “Not active” means the compounds are not active at concentrations less than 10 micromolar.

alpha2B receptor = molecular target: T2, alpha2B receptor (Homo sapiens, UniProt P18089); experiment: RSAT (Receptor Selection and Amplification Technology) assay, alpha 2B; settings: for pEC50: RSAT, transfected NIH-3T3 cells, "not active" = not active at concentrations less than 10 micromolar, read-out: Alpha 2B EC50; for Alpha 2B IA: intrinsic activity: ratio of maximal effect of drug to maximal effect of standard full agonist brimonidine (UK14304)
T2 construct: expressed in transfected cells; host or cells: NIH-3T3 cells
T2 sequence (P18089 1-450): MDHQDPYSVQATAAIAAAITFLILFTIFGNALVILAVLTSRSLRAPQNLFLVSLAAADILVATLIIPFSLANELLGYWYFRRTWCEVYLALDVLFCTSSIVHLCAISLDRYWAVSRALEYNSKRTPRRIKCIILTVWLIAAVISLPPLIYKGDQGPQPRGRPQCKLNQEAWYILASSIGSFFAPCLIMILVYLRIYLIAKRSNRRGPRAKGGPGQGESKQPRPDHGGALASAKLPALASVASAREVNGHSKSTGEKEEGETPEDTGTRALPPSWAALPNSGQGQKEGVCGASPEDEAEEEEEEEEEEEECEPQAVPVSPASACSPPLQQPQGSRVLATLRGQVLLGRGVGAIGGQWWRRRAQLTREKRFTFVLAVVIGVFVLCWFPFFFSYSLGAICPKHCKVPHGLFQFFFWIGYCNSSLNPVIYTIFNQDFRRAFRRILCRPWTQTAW
Method: as §2, §3

alpha2C receptor = molecular target: T3, alpha2C receptor (Homo sapiens, UniProt P18825); experiment: RSAT (Receptor Selection and Amplification Technology) assay, alpha 2C
T3 construct: expressed in transfected cells; host or cells: NIH-3T3 cells
T3 sequence (P18825 1-462): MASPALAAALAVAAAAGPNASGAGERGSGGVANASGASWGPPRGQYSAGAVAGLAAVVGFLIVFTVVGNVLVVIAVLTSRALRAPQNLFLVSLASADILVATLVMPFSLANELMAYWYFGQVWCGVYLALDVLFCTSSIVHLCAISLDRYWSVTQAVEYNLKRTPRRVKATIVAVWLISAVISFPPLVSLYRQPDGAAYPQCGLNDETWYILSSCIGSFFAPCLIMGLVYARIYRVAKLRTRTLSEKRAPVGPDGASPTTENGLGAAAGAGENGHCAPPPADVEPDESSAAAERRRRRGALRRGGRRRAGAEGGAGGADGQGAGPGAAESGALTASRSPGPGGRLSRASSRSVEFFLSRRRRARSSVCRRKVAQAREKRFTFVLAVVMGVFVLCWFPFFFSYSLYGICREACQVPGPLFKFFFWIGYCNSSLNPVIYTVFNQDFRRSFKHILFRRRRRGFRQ
Excerpt: as §1, §2, §3, §4

[1] = RSAT, transfected NIH-3T3 cells, "not active" = not active at concentrations less than 10 micromolar
[2] = intrinsic activity: ratio of maximal effect of drug to maximal effect of standard full agonist brimonidine (UK14304)

Compound	pEC50 (alpha2A receptor; [1])	Alpha 2A IA (alpha2A receptor; [2])	pEC50 (alpha2B receptor)	Alpha 2B IA (alpha2B receptor)	Alpha 2C EC50 (alpha2C receptor; [1])	Alpha 2A EC50 (alpha2A receptor; [1])	pEC50 (alpha2C receptor; [1])	Alpha 2C IA (alpha2C receptor; [2])
Cc1nn(C)c(C)c1CNC(=O)NCCF [Compound 43, 1-(2-fluoro-ethyl)-3-(1,3,5-trimethyl-1H-pyrazol-4-ylmethyl)-urea]	5.38	0.30	5.62	0.49	not active	–	–	–
Cc1cc(CNC(=O)NCCF)nn1C [Compound 44, 1-(1,5-dimethyl-1H-pyrazol-3-ylmethyl)-3-(2-fluoro-ethyl)-urea]	–	–	5.64	0.67	–	not active	5.38	0.31
